Results as given in patent publication US20260226470A1, “HEPATITIS B COMBINATION THERAPIES” (Aligos Therapeutics, Inc., priority 2023, published 2026).
Oligonucleotides are written 5' to 3', each unit as a sugar letter and its base; * is a phosphorothioate linkage, no mark a phosphodiester; rarer units and linkages stand in square brackets, end groups in braces. Plain capitals give the bases only. m = 2'-O-methyl; f = 2'-fluoro

Key:
[1] = test system: adeno-associated virus-hepatitis B virus (AAV-HBV) mice; test: In vivo compound efficacy in AAV-HBV mice, Example 1 (Compound 1 and siRNA-1); parameters: species or system Mouse: C57BL/6; conditions: plasma, follow-up to Day 189
Method: In vivo compound efficacy was evaluated in adeno-associated virus-hepatitis B virus (AAV-H-BV) mice. Materials and methods are presented below in tables 1-4. Table F describes the nucleic acid sequences used for siRNA-1, an siRNA. The sequences are described using modified nucleotide annotations found in Table B.
Live Phase Parameters: Based on plasma viral markers levels and body weight, 20 mice were selected and randomized into five groups for treatment. Checks were made for dead and/or moribund animals daily. Overt changes were recorded. Body weight was measured twice weekly during Day 0-97, and once weekly during Day 98-189.
Vehicle (Group 01) and Compound 1 at 55 mg/kg/dose (Groups 02, 04 and 05) were administered by oral gavage twice daily during Day 0-97. siRNA-1 at 5 mg/kg/dose was injected subcutaneously on Days 0, 14, 42 and 70 for Groups 03 and 04, and on Days 70, 84, and 102 for Group 05.
Plasma samples of 50 μL per mouse were prepared once weekly prior to dosing during Day 0-189. The samples were used for quantitative detections of HBsAg, HBeAg, and HBV DNA. Mice were sacrificed on Day 189.

HBV = test: siRNA treatment followed by CAM add-on, in vivo in mice, Example 3; conditions: FIGS. 13A-13B, 16A-16B; CAM 30 mpk BID day 63-98; siRNA-2 10 mpk SC QW day 0-98
Method: In the following example, initial treatment with an siRNA, followed by CAM add-on, was tested in vivo in mice.
The study design is described below in Table 9.
QW dosing of siRNA-2 was continued until the end of the study (day 98). HBV DNA, HBsAg, and HBeAg were measured weekly through day 98.

Row | Molecule | HBsAg effect after end of treatment (sustained or rebound) ([1]; FIGS. 3A-3B) | HBeAg effect after end of treatment (sustained or rebound) ([1]; FIGS. 4A-4B) | reduction of HBV DNA (HBV)
1 | siRNA-1: siRNA with SEQ ID NO: 2 (Sense) and SEQ ID NO: 3 (Antisense), modified nucleotides per Table B (sense mC*mC*mGmUfGmUfGfCfAmCmUmUmCmGmCmUmUmCmA; antisense mU*fG*mAmAfGmCmGfAmAmGmUmGmCfAmCmAfCmGmG*mU*mC) | rebound is observed | rebound is observed | 
2 | C=C[C@H](C)Nc1nc2c(c(=O)n1-c1ccc(C(=O)NC)cc1)C[C@@H](C)N(C(=O)c1ccc(Br)c(C(F)(F)F)c1)C2 [Compound 2, 4-((R)-7-(4-bromo-3-(trifluoromethyl)benzoyl)-2-(((S)-but-3-en-2-yl)amino)-6-methyl-4-oxo-5,6,7,8-tetrahydropyrido[3,4-d]pyrimidin-3(4H)-yl)-N-methylbenzamide] |  |  | good reduction of HBV DNA
